The record followed here is patent publication US20260092061A1, “COMPOUNDS FOR TARGETED PROTEIN DEGRADATION” (Amphista Therapeutics Limited, priority 2022, published 2026).

Common to all, as to assay type: cell-based
The target in assay [1] is T1, BRD9 (Homo sapiens, UniProt Q9H8M2).
T1 sequence (Q9H8M2 1-597): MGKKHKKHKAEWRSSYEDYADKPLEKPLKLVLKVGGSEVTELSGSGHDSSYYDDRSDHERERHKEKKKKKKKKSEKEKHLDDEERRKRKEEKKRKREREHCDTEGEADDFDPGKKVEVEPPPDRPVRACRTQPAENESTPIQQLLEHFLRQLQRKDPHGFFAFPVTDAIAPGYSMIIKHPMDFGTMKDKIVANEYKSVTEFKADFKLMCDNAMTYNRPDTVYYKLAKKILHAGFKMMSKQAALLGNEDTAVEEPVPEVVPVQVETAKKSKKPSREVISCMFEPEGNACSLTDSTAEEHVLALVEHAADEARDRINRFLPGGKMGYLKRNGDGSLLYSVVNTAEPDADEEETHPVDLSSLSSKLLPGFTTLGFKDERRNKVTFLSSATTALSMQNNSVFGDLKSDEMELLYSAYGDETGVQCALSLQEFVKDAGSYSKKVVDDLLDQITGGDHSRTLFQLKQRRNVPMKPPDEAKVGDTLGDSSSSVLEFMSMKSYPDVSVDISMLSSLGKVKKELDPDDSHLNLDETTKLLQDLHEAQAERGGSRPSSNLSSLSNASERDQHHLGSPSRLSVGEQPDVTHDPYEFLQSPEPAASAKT
Put plainly: BRD9 degradation, HiBiT-BRD9 KI HEK293 (LgBiT) cells, NanoGlo Lytic Endpoint assay (Assay Protocol 1). To be noted: for Dmax at 1 µM: HEK293; for DC50: 6 h of treatment, read-out: Assay 1 DC50. Summed up:
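HiBiT-tagged BRD9 knock-in HEK293 (LgBiT) cells exposed to compounds for 6 h at 37 °C, 5% CO2. Residual BRD9 measured by HiBiT lytic luminescence. % BRD9 remaining normalised to DMSO-treated cells (high) and no-cell wells (low).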
On the technique in general: HiBiT is a short tag that completes a luciferase, so light tracks the accessible tagged protein.

Another assay addresses T2, BRD7 (Homo sapiens, UniProt Q9NPI1).
T2 construct: HiBiT-BRD7 KI HEK293 (LgBiT) Cells (Promega CS3023410); host or cells: HEK293 (LgBiT), HiBiT knock-in at the BRD7 locus
T2 sequence (Q9NPI1 1-651): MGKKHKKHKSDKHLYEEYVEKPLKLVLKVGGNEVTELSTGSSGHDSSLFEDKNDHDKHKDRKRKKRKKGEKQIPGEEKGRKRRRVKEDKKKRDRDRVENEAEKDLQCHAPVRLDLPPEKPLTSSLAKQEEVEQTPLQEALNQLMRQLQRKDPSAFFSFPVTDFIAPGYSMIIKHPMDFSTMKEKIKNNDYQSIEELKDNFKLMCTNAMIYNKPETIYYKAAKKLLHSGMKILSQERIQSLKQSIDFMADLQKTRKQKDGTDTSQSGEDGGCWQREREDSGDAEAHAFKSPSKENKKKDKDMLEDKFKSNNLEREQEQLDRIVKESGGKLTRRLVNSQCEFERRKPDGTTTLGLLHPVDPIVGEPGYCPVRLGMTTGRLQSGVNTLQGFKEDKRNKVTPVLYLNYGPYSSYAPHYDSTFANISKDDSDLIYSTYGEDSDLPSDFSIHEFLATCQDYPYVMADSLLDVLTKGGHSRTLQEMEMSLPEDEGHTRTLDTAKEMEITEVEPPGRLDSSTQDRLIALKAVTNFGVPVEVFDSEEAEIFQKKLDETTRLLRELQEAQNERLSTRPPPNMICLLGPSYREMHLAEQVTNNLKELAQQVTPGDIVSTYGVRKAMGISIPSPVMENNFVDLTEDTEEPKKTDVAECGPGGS
Put plainly: BRD7 degradation, HiBiT-BRD7 KI HEK293 (LgBiT) cells, NanoGlo Lytic Endpoint assay (Assay Protocol 1). The note with it: HEK293; Table 3; assay 1; 1 μM compound at 5 h of treatment. The procedure:
HiBiT-BRD9 KI HEK293 (LgBiT) Cells (Promega CS3023412) were seeded at 8000 cells per well (38 μL) in sterile white bottom 384 well plates (Invitrogen 164610 or Greiner 781080) and incubated overnight at 37° C. with 5% CO2. The next day, compounds were prepared at 1000× final concentration in DMSO and diluted 1:100 in media (DMEM PAN Biotech P04-03550+10% FBS ATCC 302025). […] The lytic buffer was equilibrated to room temperature for 10-15 min before lytic reagent was prepared by adding substrate (1:50) and LgBit protein (1:100) in lytic buffer. 40 μL lytic reagent mix was added to each well of the cel plate and plates were centrifuged briefly at ˜50g. Plates were incubated with shaking (350 RPM) for 12-24 min before reading using the LUM plus module of a BMG Pherastar FSX. Data was analysed using Dotmatics software and % BRD9 remaining was calculated by normalisation to average data from high and low control wells (DMSO treated cels and no cells respectively).
BRD7 degradation was determined in line with the procedure as outlined above for BRD9, with the exception that HiBiT-BRD7 KI HEK293 (LgBiT) Cells (Promega CS3023410) were seeded at 8000 cells per well (CPW) (36 uL) in sterile white bottom 384 well plates (Invitrogen 164610 or Greiner 781080) and incubated overnight at 37° C. with 5% CO2.

For assay [2], the target named is T1, BRD9. As to the kind of experiment: BRD9 degradation, HiBiT-BRD9 KI HEK293 (LgBiT) cells, NanoGlo Lytic Endpoint assay (Assay Protocol 1). The note with it: Table 3; assay 1; 5 h of treatment.
The next assay deals with T3, BRD4 (Homo sapiens, UniProt O60885).
T3 construct: HiBiT-BRD4 HEK293 CRISPR CPM (Promega CS302312); host or cells: HEK293, CRISPR-edited (HiBiT at the BRD4 locus)
As to the kind of experiment: BRD4 degradation, HiBiT-BRD4 HEK293 CRISPR CPM cells, NanoGlo Lytic Endpoint assay (Assay Protocol 1). To be noted: Table 3, assay 1; for Dmax: HEK293, 1 μM compound at 5 h of treatment; for DC50: 5 h of treatment.

Where [3] appears, read: Table 2, BRD9 degradation, Assay Protocol 1, 1 μM compound at 6 h of treatment, read-out: Assay 1 Dmax.
The mark [4] stands for this setting: Table 3, assay 1, 1 μM compound at 5 h of treatment, read-out: BRD9 Dmax (%).
The mark [5] stands for this setting: Table 2, BRD9 degradation, Assay Protocol 1.

Like-named read-outs stand apart in the source and are kept apart here.

What is called Dmax is the greatest extent of degradation seen. The term DC50 denotes the concentration giving 50% degradation. In the case of `COc1cc(-c2cc(C)c(=O)n(C)c2)cc(OC)c1CN1CCN(Cc2cccc3c2CCN(C(=O)/C(C#N)=C/C2(F)CC2)C3C)CC1` (mixture of isomers) [Compound A61, (E/Z)-2-(5-((4-(4-(1,5-dimethyl-6-oxo-1,6-dihydropyridin-3-yl)-2,6-dimethoxybenzyl)piperazin-1-yl)methyl)-1-methyl-1,2,3,4-tetrahydroisoquinoline-2-carbonyl)-3-(1-fluorocyclopropyl) acrylonitrile], the values for the Dmax at 1 µM on BRD9 [1] (setting [3]), at BRD9 [1] (setting [4]) and at BRD7 were over 75%, over 75% and under 25%, respectively. Besides, the half-maximal degradation concentration (DC50) on BRD9 [1] (setting [5]) is under 1.25 nM; on BRD9 [2], under 1.25 nM; at BRD4, 25 to 1000 nM. Further, the maximal degradation (Dmax) at BRD4 lay in the range of 40 to 70%.
Turning to `COc1cc(-c2cc(C)c(=O)n(C)c2)cc(OC)c1CN1CCN(Cc2cccc3c2CCN(C(=O)/C(C#N)=C/c2cccc(Br)n2)C3C)CC1` (mixture of isomers) [Compound A60], the values for the Dmax at 1 µM on BRD9 [1] (setting [3]), at BRD9 [1] (setting [4]) and at BRD7 were 40 to 70%, 40 to 70% and under 25%, respectively. Further, the half-maximal degradation concentration (DC50) was under 1.25 nM at BRD9 [1] (setting [5]), under 1.25 nM on BRD9 [2] and 25 to 1000 nM at BRD4. The maximal degradation (Dmax) on BRD4 is 40 to 70%.
